{"source": "patent US4168316A", "about": "“Immunosuppressive-1-(thiocarbamoyl)-2-imidazolidinone” (Northwestern University, priority 1978, dated 1979)", "key": {"[1]": {"system": "DNFB-induced ear swelling", "assay": "ear swelling assay, delayed-type contact sensitivity to 2,4-dinitro-1-fluorobenzene (DNFB)", "format": "in vivo, inbred mice (C57BL/6J; (C57BL/6J×DBA/2J) F1)", "text": "In further proof of the activity of the purified material from Example 3 as compared with niridazole per se, there was employed the ear swelling assay of Phanuphak et al. (1), which measures delayed-type contact sensitivity of inbred mice to 2,4-dinitro-1-fluorobenzene (DNFB). The assay was done according to the following protocol: on Day 1, groups of mice, matched for sex and weight, had their abdomens shaved and received varying doses of niridazole or NIF, the purified product of Example 2. The animals were sensitized on Day 3 with 20 μl of 0.5% (v/v) DNFB in acetone: olive oil (4:1, v/v) applied to the shaved abdomen. The sensitization procedure was repeated on Day 4. On Day 8, mice were lightly anesthetized with ether and the right ear thickness measured (10^-2 ×mm) by a modified dial thickness gauge. The right ear was then challenged with 10 μl of 0.5% DNFB solution. Twenty-four hours later, the mice were again anesthetized and the thickness of the right ear was measured to determine the immune response (swelling to the DNFB challenge)."}, "[2]": {"system": "granuloma formation around S. mansoni eggs", "assay": "granuloma formation around S. mansoni eggs injected intravenously into the pulmonary microvasculature", "format": "in vivo, CF1 Swiss albino female mice", "details": "niridazole single oral dose 1 mg/kg, Day -1, p<0.005", "protocol": "Groups of 5 weanling CF1 Swiss albino female mice (18-22 g body weight) obtained from Carworth Farms, Inc., New City, New York were treated by intravenous injection with different doses of urine fractions at varying time intervals before egg injection. Untreated mice and niridazole treated animals (1 mg/kg body weight given orally on the day before egg injection) were used as controls. […] Fifty granulomas containing eggs in their centers were measured from each experimental group and the significance of the difference was evaluated by the Student's t test."}, "[3]": {"system": "delayed hypersensitivity-type reactions", "details": "cited from earlier work"}, "[4]": {"system": "inflammation related to delayed hypersensitivity", "details": "tests on experimental animals; cited from earlier work"}}}
{"compound": "NC(=S)N1CCNC1=O", "note": "[NIF, 1-(thiocarbamoyl)-2-imidazolidinone]", "values": [{"measurement": "suppression of ear swelling", "setting": "[1]; 10^-8 -10^-10 g/kg pure (NIF) urine extracts", "value": 50, "unit": "%"}, {"measurement": "SUPPRESSION", "setting": "[1]; Exp. II, F1 mice, 1.2 × 10^-8 g/kg ip", "value": "48 ± 7", "unit": "%"}, {"measurement": "EAR SWELLING (± SEM)", "setting": "[1]; Exp. II, F1 mice, 1.2 × 10^-8 g/kg ip, n=5, control 30.9", "value": "16.0 ± 2.2 10^-2 × mm"}, {"measurement": "SUPPRESSION", "setting": "[1]; Exp. II, F1 mice, 1.2 × 10^-10 g/kg ip", "value": "46 ± 4", "unit": "%"}, {"measurement": "EAR SWELLING (± SEM)", "setting": "[1]; Exp. II, F1 mice, 1.2 × 10^-10 g/kg ip, n=5, control 30.9", "value": "16.8 ± 1.2 10^-2 × mm"}, {"measurement": "SUPPRESSION", "setting": "[1]; Exp. III, B6 mice, 1.6 × 10^-8 g/kg ip", "value": "52 ± 14", "unit": "%"}, {"measurement": "EAR SWELLING (± SEM)", "setting": "[1]; Exp. III, B6 mice, 1.6 × 10^-8 g/kg ip, n=4, control 36.2", "value": "17.5 ± 5.0 10^-2 × mm"}, {"measurement": "SUPPRESSION", "setting": "[1]; Exp. III, B6 mice, 1.6 × 10^-8 g/kg iv", "value": "25 ± 21", "unit": "%"}, {"measurement": "EAR SWELLING (± SEM)", "setting": "[1]; Exp. III, B6 mice, 1.6 × 10^-8 g/kg iv, n=4, control 36.2", "value": "27.2 ± 7.7 10^-2 × mm"}, {"measurement": "SUPPRESSION", "setting": "[1]; Exp. III, B6 mice, 1.6 × 10^-10 g/kg ip", "value": "69 ± 13", "unit": "%"}, {"measurement": "EAR SWELLING (± SEM)", "setting": "[1]; Exp. III, B6 mice, 1.6 × 10^-10 g/kg ip, n=4, control 36.2", "value": "11.4 ± 4.8 10^-2 × mm"}, {"measurement": "SUPPRESSION", "setting": "[1]; Exp. III, B6 mice, 1.6 × 10^-10 g/kg iv", "value": "45 ± 12", "unit": "%"}, {"measurement": "EAR SWELLING (± SEM)", "setting": "[1]; Exp. III, B6 mice, 1.6 × 10^-10 g/kg iv, n=4, control 36.2", "value": "20.0 ± 4.3 10^-2 × mm"}, {"measurement": "SUPPRESSION", "setting": "[1]; Exp. III, B6 mice, 1.6 × 10^-11 g/kg iv", "value": "65 ± 9", "unit": "%"}, {"measurement": "EAR SWELLING (± SEM)", "setting": "[1]; Exp. III, B6 mice, 1.6 × 10^-11 g/kg iv, n=4, control 36.2", "value": "12.8 ± 3.2 10^-2 × mm"}, {"measurement": "SUPPRESSION", "setting": "[1]; Exp. III, B6 mice, 1.6 × 10^-12 g/kg iv", "value": "88 ± 9", "unit": "%"}, {"measurement": "EAR SWELLING (± SEM)", "setting": "[1]; Exp. III, B6 mice, 1.6 × 10^-12 g/kg iv, n=4, control 36.2", "value": "4.4 ± 3.2 10^-2 × mm"}, {"measurement": "ear swelling, in words", "setting": "[1]; experiment III, extract dose 10^-12 g/kg", "value": "all but ablated"}, {"measurement": "suppression at higher doses, in words", "setting": "[1]; extract 10^-8 g/kg i.v.", "value": "less suppression"}]}
{"compound": "O=C1NCCN1c1ncc([N+](=O)[O-])s1", "note": "[niridazole, 1-(5-nitro-2-thiazolyl)-2-imidazolidinone, reference compound]", "values": [{"measurement": "mean granuloma area", "setting": "[2]; Table III experiment", "value": "11 ± 2.6", "unit": "μ^2 × 10^3"}, {"measurement": "mean granuloma area", "setting": "[2]; Table IV experiment", "value": "8 ± 2.6", "unit": "μ^2 × 10^3"}, {"measurement": "suppression of ear swelling, in words", "setting": "[1]; 10^-3 to 10^-4 g/kg niridazole intraperitoneally", "value": "Significant suppression of ear swelling"}, {"measurement": "SUPPRESSION", "setting": "[1]; Exp. I, F1 mice, niridazole dose 10^-2, ip", "value": "37 ± 3", "unit": "%"}, {"measurement": "EAR SWELLING (± SEM)", "setting": "[1]; Exp. I, F1 mice, niridazole dose 10^-2, ip, n=5, control 26.9", "value": "17.0 ± 0.9 10^-2 × mm"}, {"measurement": "SUPPRESSION", "setting": "[1]; Exp. I, F1 mice, niridazole dose 10^-3, ip", "value": "66 ± 4", "unit": "%"}, {"measurement": "EAR SWELLING (± SEM)", "setting": "[1]; Exp. I, F1 mice, niridazole dose 10^-3, ip, n=5, control 26.9", "value": "9.1 ± 1.2 10^-2 × mm"}, {"measurement": "suppression at higher doses, in words", "setting": "[1]; niridazole 10 mg/kg", "value": "less suppression"}, {"measurement": "suppression of delayed hypersensitivity-type reactions, in words", "setting": "[3]; human studies by Webster et al", "value": "corroborated the suppression of delayed hypersensitivity-type reactions"}, {"measurement": "effect on inflammations, in words", "setting": "[3]; patients undergoing prolonged treatment, Mahmoud et al", "value": "suppressed inflammations"}, {"measurement": "effect on inflammation related to delayed hypersensitivity, in words", "setting": "[4]", "value": "suppression of inflammation related to delayed hypersensitivity including retardation of allograft rejection"}]}
